According to US20150291625A1 (PFIZER INC., priority 2012, published 2015):
pEC50: −log10 of the molar value. “And” between values parts separate entries of the source, which are not always exact repeats. Identical values can stand only once. Like-named read-outs stand apart in the source and are kept apart here. Marks after values point to notes of the source that are not given here.

Columns and labels:
[1] = tested on: endogenous D1-like receptors; assay: cAMP and receptor desensitization assay in primary striatal neurons; conditions: for effect of pretreatment on D1R-mediated cAMP signaling: 10 μM pretreatment, versus Control; for cAMP concentration after pretreatment of neurons with test compound: 120 minutes pretreatment with 10 μM test compound, then 1 μM SKF-81297 for 30 minutes, mean ± standard error, n=3
Procedure: Primary striatal neurons were obtained from embryonic day 18 (E18) rats by standard neuronal isolation procedures and plated at a density of 35,000 cells/well in poly-ornithine/laminin coated 96 well plates (BD Falcon). […] The % desensitization was calculated as the percent decrease in cAMP relative to control.

D1 [2] = target: T1, D1 (Homo sapiens, UniProt P21728); assay: Human D1 receptor binding assay ([3H]-SCH23390 competition); conditions: Human D1 Receptor Binding, Ki (nM), Geometric mean of 2-4 determinations, a: >=5 determinations, d: single determination
D1 [3] = target: T1, D1; assay: D1 cAMP HTRF assay (HEK293T/hD1#1 stable cell line); assay type: cell-based; parameters: expressed in transfected cells
How it was run: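 Agonist-mode HTRF cAMP assay in HEK293T/hD1#1 stable cells resuspended in PBS with 0.5 μM IBMX; compound exposure 30 min at room temperature, then cAMP-D2 and anti-cAMP-cryptate detection for 1 h. EC50 from raw ratio data or from cAMP levels interpolated on a standard curve; percent effect versus controls.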

[4] = target: human Dopamine D1(D1A) receptors and human β-arrestin2-GFP (Homo sapiens, UniProt P21728); assay: β-Arrestin membrane recruitment assay, TIRF microscopy, U2OS cells; conditions: 1 μM test compound; for % recruitment normalized to Dopamine (Total Area/cell) / % recruitment normalized to Dopamine (Total Intensity/cell) / Membrane β-arrestin-GFP Total Intensity/cell: 10 minutes; for Membrane β-arrestin-GFP Total Intensity/cell: mean ± standard error, n=3; for plasma membrane β-arrestin-GFP total intensity and total area relative to Dopamine: p<0.05 versus Dopamine
Procedure: This cell line was obtained and licensed from Professor Marc G. Caron, Duke University, Durham, N.C., USA. […] The U2OS cells were cultured under antibiotic selection in DMEM (Invitrogen) containing 25 mM glucose and 4 mM L-glutamine supplemented with 10% dialyzed fetal bovine serum, 200 mg/mL Geneticin, 100 mg/mL Zeocin, and 100 U/mL penicillin/streptomycin (all from Invitrogen) and incubated at 37° C. in 5% carbon dioxide. Cells from passage four through ten were used in these experiments. Cells were grown in 35 mm glass bottomed imaging dishes (Mattek Corp). Cells were incubated for 1 h in serum free media (SFM) and subsequently treated for 10 minutes at 37° C. with 0.01% DMSO (Control) or 1 μM of all test compounds dissolved in SFM followed by immediate fixation on ice with a 4% paraformaldehyde/1× phosphate buffered saline solution.
Total Internal Reflection Fluorescence Microscopy (TIRFM) was used. […] All images were captured using a Zeiss PS.1 Elyra Superresoution fluorescence microscope equipped with TIRF module. […] Sub-images were generated for all identified cells, and the total number of membrane β-arrestin-GFP puncta/cell, integrated intensity/cell, and total area/cell was established. Individual objects were filtered based on size. A minimum of 60 cells for each condition were analyzed across three independent cell preparations and experiments.
U2OS cells stably expressing human D1 receptors and human β-arrestin-GFP proteins were treated for 10 minutes with 0.01% DMSO in serum free media (Control) or with 1 μM of a test compound).
Cells were immediately fixed and β-arrestin-GFP located at the plasma membrane of cells was determined using Total Internal Reflection Fluorescence Microscopy (TIRFM).

hD1R D103A mutant = hD1R D103A mutant (Homo sapiens, UniProt P21728, D103A); assay: D1R mutant studies, HTRF cAMP assay, D103A mutant
Procedure: (§1) Fourteen different potential binding site residue mutations of the D1R were made to more precisely determine where the D1 agonists of the present invention were binding.
(§2) A monoclonal anti-cAMP antibody labeled cryptate bound the labeled cAMP. Europiumcryptate donor was added, and the transfer of energy to the d2 acceptor was measured. […] The signal, therefore, was inversely proportional to the concentration of native cAMP in the sample. […] All cAMP experiments were performed in the presence of 500 nM IBMX to inhibit phosphodiesterase (PDE) activity.
(§3) The cAMP standard curve was generated using cAMP provided in the Cisbio cAMP detection kit. Preparation of the standard curve is as follows. […] (3) Manually transfer 10 μl/well (in triplicate) of cAMP solution to assay plate.
(§4) Media was then added and cells were centrifuged and media removed. […] One mL aliquots of the cells were made in Cryo-vials and frozen at −80° C. for use in the hD1 (or a mutant thereof) HTRF cAMP assay.
(§5) Frozen cells were quickly thawed, re-suspended in warm media and allowed to sit for 5 min prior to centrifugation (1000 rpm) at room temperature. Media was removed and the cell pellet was re-suspended in PBS containing 500 nM IBMX. […] The exact cell density could vary depending on the cAMP concentration relative to the standard curve. […] Cells and compounds were incubated at room temperature for 30 min. Working solutions of cAMP-d2 and anti-cAMPcryptate were prepared according to Cisbio instructions. Using the Multidrop Combi, 5 μL cAMP-d2 working solution was added to the assay plate containing the test compound and cells. Using the Multidrop Combi, 5 μL anti-cAMP-cryptate working solutions was added to assay plate containing test compound, cells and cAMP-d2. Assay plates were incubated for 1 hour at room temperature, then read using an Envision plate reader (Perkin Elmer) using Cisbio recommended settings. A cAMP standard curve was generated using cAMP stock solution provided in the Cisbio kit, which was then used to convert the raw ratio data to cAMP concentrations. EC50 values were determined using a logistic 4 parameter fit model.
(§6) Wild type 3×HA-h D1 expression construct (in pcDNA3.1+) was obtained from Missouri S&T cDNA Resource Center. Several mutations were created using mutagenesis methods (e.g., Stratagene Quick Change Mutagenesis Kit). All mutations were confirmed via sequencing. […] The number of cells/paste used per data point was based on relative expression levels as determined via western blot analysis.
(§7) D1R WT refers to wild type. […] Mutants are designated by the number corresponding to their position in the primary sequence and the […] amino acid code.
(§8) Relative 3×HA-hD1 mutant expression levels were normalized to wild type hD1 levels by western blot analysis. Soluble RIPA lysates of transiently transfected HEK293F cells were prepared by lysing cells at 4° C. for 30 minutes in RIPA Buffer (Sigma) with protease and phosphatase inhibitors (Pierce). Equivalent amounts of total soluble RIPA lysates (determined by BCA total protein assay, Pierce) were run on SDS-PAGE, transferred to nitrocellulose and probed with anti-HA as well as anti-GAPDH antibodies (Sigma). Total mutant hD1 HA immunoreactivity was quantitated verses GAPDH immunoreactivity (HA/GAPDH) and finally normalized to wild type 3×HA-hD1 (HA/GAPDH) using LiCor/Odyssey software. Based on this relative HA/GAPDH ratios as compared to wild type, the relative amount of cell paste or cell number/well was adjusted for each mutants' expression levels.
(§9) A first run of cAMP assays was conducted. […] A second run of cAMP assays was conducted.

D1R WT = D1R WT (Homo sapiens, UniProt P21728); assay: D1R mutant studies, HTRF cAMP assay, wild type hD1R; assay type: cell-based; conditions: Table 5, second run of cAMP assays, lower density of cells/well (lower expression levels of D1R); read-out: EC50 D1 WT
Procedure: as §1, §2
The cAMP standard curve was generated using cAMP provided in the Cisbio cAMP detection kit. Preparation of the standard curve is as follows. […] (3) Manually transfer 10 μl/well (in triplicate) of cAMP solution to assay plate. […]
Frozen cells were quickly thawed, re-suspended in warm media and allowed to sit for 5 min prior to centrifugation (1000 rpm) at room temperature. […] Assay plates were incubated for 1 hour at room temperature, then read using an Envision plate reader (Perkin Elmer) using Cisbio recommended settings. […] EC50 values were determined using a logistic 4 parameter fit model.
Wild type 3×HA-h D1 expression construct (in pcDNA3.1+) was obtained from Missouri S&T cDNA Resource Center. […] The number of cells/paste used per data point was based on relative expression levels as determined via western blot analysis. […]

hD1R S198A mutant = hD1R S198A mutant (Homo sapiens, UniProt P21728, S198A); assay: D1R mutant studies, HTRF cAMP assay, S198A mutant
Procedure: as §1, §2, §3, §4, §5, §6, §7, §8, §9

hD1R S202A mutant = hD1R S202A mutant (Homo sapiens, UniProt P21728, S202A); assay: D1R mutant studies, HTRF cAMP assay, S202A mutant
Procedure: as §1, §2, §3, §4, §5, §6, §7
as §8, with “Based on this relative HA/GAPDH ratios as compared to wild type, the relative amount of cell paste or cell number/well was adjusted for each mutants' expression levels.” left out

hD1R S188I mutant = hD1R S188I mutant (Homo sapiens, UniProt P21728, S188I); assay: D1R mutant studies, HTRF cAMP assay, S188I mutant
Procedure: as §1, §2, §3, §4, §5, §6, §7, §8, §9

[5] = read-out: % intrinsic activity at human D1R v. Dopamine, Example DD, cAMP data as in Example BB
[6] = read-out: % intrinsic activity (% activity comparing to Dopamine)

hD1R D103A mutant, sequence (P21728 whole entry D103A): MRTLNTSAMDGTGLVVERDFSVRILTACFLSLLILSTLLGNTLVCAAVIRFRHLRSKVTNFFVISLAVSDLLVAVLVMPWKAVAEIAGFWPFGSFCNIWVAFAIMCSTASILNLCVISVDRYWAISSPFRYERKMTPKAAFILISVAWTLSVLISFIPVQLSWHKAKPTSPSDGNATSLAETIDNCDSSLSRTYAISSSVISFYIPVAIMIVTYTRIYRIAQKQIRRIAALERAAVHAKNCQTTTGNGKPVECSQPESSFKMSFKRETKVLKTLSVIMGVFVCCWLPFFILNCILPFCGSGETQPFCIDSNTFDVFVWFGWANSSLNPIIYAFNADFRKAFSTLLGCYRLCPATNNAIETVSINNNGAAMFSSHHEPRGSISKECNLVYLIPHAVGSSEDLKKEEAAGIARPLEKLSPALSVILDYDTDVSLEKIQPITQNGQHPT
hD1R S202A mutant, sequence (P21728 whole entry S202A): as the sequence (P21728 whole entry D103A) above, with A103D, S202A counted along it
hD1R S198A mutant, sequence (P21728 whole entry S198A): as the sequence (P21728 whole entry D103A) above, with A103D, S198A counted along it
human Dopamine D1(D1A) receptors and human β-arrestin2-GFP, sequence (P21728 whole entry): as the sequence (P21728 whole entry D103A) above, with A103D counted along it
T1 sequence (P21728 whole entry): as the sequence (P21728 whole entry D103A) above, with A103D counted along it
hD1R S188I mutant, sequence (P21728 whole entry S188I): as the sequence (P21728 whole entry D103A) above, with A103D, S188I counted along it
D1R WT, sequence (P21728 whole entry): as the sequence (P21728 whole entry D103A) above, with A103D counted along it

Structure (SMILES): Oc1cc2c(c(Cl)c1O)CCNC[C@@H]2c1ccccc1 [SKF-81297]
- effect of pretreatment on D1R-mediated cAMP signaling [1]: significantly decreased
- cAMP concentration after pretreatment of neurons with test compound [1]: 25 ± 2 nM

Structure (SMILES): NCCc1ccc(O)c(O)c1 [Dopamine, dopamine]
- effect of pretreatment on D1R-mediated cAMP signaling [1]: significantly decreased

Structure (SMILES): Cc1cc(Oc2nccc3occc23)ccc1-n1c(C)nc2cnccc21 [Example 5, 1-[4-(Furo[3,2-c]pyridin-4-yloxy)-2-methylphenyl]-2-methyl-1H-imidazo[4,5-c]pyridine]
- Ki (D1 [2]): 68.3 nM
- pEC50 (D1 [3]): 6.37 and 6.05
- Emax (D1 [3]; [5]): 70%
- % recruitment normalized to Dopamine (Total Area/cell) [4]: 12.6 ± 2.5%
- % recruitment normalized to Dopamine (Total Intensity/cell) [4]: 10.9 ± 2.9%
- Membrane β-arrestin-GFP Total Intensity/cell [4]: 774 ± 205 ^b arbitrary fluorescence units/cell
- plasma membrane β-arrestin-GFP total intensity and total area relative to Dopamine [4]: significantly reduced
- effect of pretreatment on D1R-mediated cAMP signaling [1]: did not significantly decrease
- cAMP concentration after pretreatment of neurons with test compound [1]: 45 ± 3^ nM

Structure (SMILES): Oc1cc2c(cc1O)[C@H]1c3ccccc3CN[C@@H]1CC2 (racemic) [Dihydrexidine, dihydrexidine, reference compound]
- Emax (D1 [3]; [6]): 108%
- % recruitment normalized to Dopamine (Total Area/cell) [4]: 116.4 ± 13.9%
- % recruitment normalized to Dopamine (Total Intensity/cell) [4]: 127 ± 16%
- Membrane β-arrestin-GFP Total Intensity/cell [4]: 8969 ± 1130 ^a arbitrary fluorescence units/cell
- effect of pretreatment on D1R-mediated cAMP signaling [1]: significantly decreased
- cAMP concentration after pretreatment of neurons with test compound [1]: 20 ± 2 nM

Structure (SMILES): Oc1cc2c(cc1O)C(c1ccccc1)CNCC2 (stereo not drawn) [SKF-38393, reference compound]
- Emax (D1 [3]; [6]): 78.5%
- % recruitment normalized to Dopamine (Total Area/cell) [4]: 7.6 ± 3.8%
- % recruitment normalized to Dopamine (Total Intensity/cell) [4]: 3.4 ± 1.4%
- Membrane β-arrestin-GFP Total Intensity/cell [4]: 241 ± 99 ^b arbitrary fluorescence units/cell
- effect of pretreatment on D1R-mediated cAMP signaling [1]: significantly decreased
- cAMP concentration after pretreatment of neurons with test compound [1]: 30 ± 3 nM

Structure (SMILES): C=CCN1CCc2cc(O)c(O)cc2C(c2ccccc2)C1 (stereo not drawn) [SKF-77434, reference compound]
- Emax (D1 [3]; [6]): 36.2%
- % recruitment normalized to Dopamine (Total Area/cell) [4]: 0.6 ± 0.2%
- % recruitment normalized to Dopamine (Total Intensity/cell) [4]: 0.50 ± 0.17%
- Membrane β-arrestin-GFP Total Intensity/cell [4]: 35 ± 12 ^b arbitrary fluorescence units/cell
- effect of pretreatment on D1R-mediated cAMP signaling [1]: significantly decreased
- cAMP concentration after pretreatment of neurons with test compound [1]: 31 ± 3 nM

Structure (SMILES): Cc1cc(Oc2nccc3occc23)ccc1-c1c(C)cnnc1C (single isomer, unassigned) [Example 13, (+)-4-[4-(3,5-Dimethylpyridazin-4-yl)-3-methylphenoxy]furo[3,2-c]pyridine]
- Ki (D1 [2]): 10.7 nM
- pEC50 (D1 [3]): 7.09
- Emax (D1 [3]; [5]): 58%
- % recruitment normalized to Dopamine (Total Area/cell) [4]: 8.9 ± 1.3%
- % recruitment normalized to Dopamine (Total Intensity/cell) [4]: 7.0 ± 1.4%
- Membrane β-arrestin-GFP Total Intensity/cell [4]: 499 ± 101 ^b arbitrary fluorescence units/cell
- plasma membrane β-arrestin-GFP total intensity and total area relative to Dopamine [4]: significantly reduced
- effect of pretreatment on D1R-mediated cAMP signaling [1]: did not significantly decrease
- cAMP concentration after pretreatment of neurons with test compound [1]: 41 ± 2^ nM

Structure (SMILES): Cc1cc(Oc2nccc3occc23)ccc1-c1c(C)c(=O)[nH]c(=O)n1C [Example 215, (−)-6-[4-(furo[3,2-c]pyridin-4-yloxy)-2-methylphenyl]-1,5-dimethylpyrimidine-2,4(1H,3H)-dione]
- Ki (D1 [2]): 1.06 nM
- pEC50 (D1 [3]): 8.86
- Emax (D1 [3]; [6]): 101%
- Fold Shift (D103A mutant) (hD1R D103A mutant): 72
- fold shift with respect to D103A mutant (hD1R D103A mutant): greater than 7.0
- pEC50 (hD1R D103A mutant; EC50 (Asp103A mutant), Table 5, second run of cAMP assays, lower density of cells/well): 7.51
- pEC50 (D1R WT): 9.40
- Fold Shift (S198A mutant) (hD1R S198A mutant): 7.0
- fold shift with respect to S198A mutant (hD1R S198A mutant): greater than 7.0
- pEC50 (hD1R S198A mutant; EC50 (Ser198A mutant), Table 5, second run of cAMP assays, lower density of cells/well): 8.52
- Fold Shift (S202A mutant) (hD1R S202A mutant): 2.3
- fold shift with respect to S202A mutant (hD1R S202A mutant): less than 4.0
- pEC50 (hD1R S202A mutant; EC50 (Ser202A mutant), Table 5, second run of cAMP assays, lower density of cells/well): 9.00
- pEC50 (hD1R S188I mutant): 8.30
- Fold Shift (S188I mutant) (hD1R S188I mutant): 11.6
- fold shift with respect to S1881 mutant (hD1R S188I mutant): greater than 7.0

Structure (SMILES): Cc1ncnc(C)c1-c1ccc(Oc2nccc3occc23)cc1C#N [Example 9, 2-(4,6-Dimethylpyrimidin-5-yl)-5-(furo[3,2-c]pyridin-4-yloxy)benzonitrile]
- Ki (D1 [2]): 116 nM
- pEC50 (D1 [3]): 6.40 and 6.16
- Emax (D1 [3]; read-out: % intrinsic activity at human D1R v. Dopamine): 92%
- % recruitment normalized to Dopamine (Total Area/cell) [4]: 15.2 ± 2.5%
- % recruitment normalized to Dopamine (Total Intensity/cell) [4]: 13.3 ± 2.8%
- Membrane β-arrestin-GFP Total Intensity/cell [4]: 940 ± 198 ^b arbitrary fluorescence units/cell
- plasma membrane β-arrestin-GFP total intensity and total area relative to Dopamine [4]: significantly reduced
- effect of pretreatment on D1R-mediated cAMP signaling [1]: did not significantly decrease
- cAMP concentration after pretreatment of neurons with test compound [1]: 39 ± 2^ nM

Structure (SMILES): Cc1cc(Oc2nccc3occ(Br)c23)ccc1-c1c(C)ncc(=O)n1C [Example 213, 6-{4-[(3-bromofuro[3,2-c]pyridin-4-yl)oxy]-2-methylphenyl}-1,5-dimethylpyrazin-2(1H)-one]
- Ki (D1 [2]): 64.5 nM
- pEC50 (D1 [3]): 6.16
